In patent publication US8476298B2 (Exelixis, Inc., priority 2003, dated 2013):
Like-named read-outs stand apart in the source and are kept apart here.

Experiments:
[1] = molecular target: T1, KDR (baculovirus expressed human KDR kinase domain D807-V1356) (Homo sapiens, UniProt P35968); experiment: biochemical;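 also: Luciferase-coupled chemiluminescent kinase assay, activity read as percent ATP left after 4 h reaction at ambient temperature, ATP near KM, 10-point dose-response in 384-well plates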
T1 construct: human KDR kinase domain D807-V1356; host or cells: baculovirus expression

[2] = molecular target: T2, Flt-4 (baculovirus expressed human Flt-4 kinase domain D725-R1298) (Homo sapiens, UniProt P35916); experiment: flt-4 Alphascreen Tyrosine Kinase assay; type: biochemical;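 also: AlphaScreen chemiluminescence read-out of biotinylated poly(Glu,Tyr) 4:1 phosphorylation via streptavidin donor and PY100 anti-phosphotyrosine acceptor beads, ATP near KM, 1 hr kinase reaction, 10-point dose-response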
T2 construct: human Flt-4 kinase domain D725-R1298; host or cells: baculovirus expression

[3] = molecular target: T3, c-Met (baculovirus expressed human c-Met kinase domain P948-S1343) (Homo sapiens, UniProt P08581); experiment: c-Met Luciferase-Coupled Chemiluminescent Kinase assay (LCCA); type: biochemical;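 also: kinase activity read as percent ATP left after reaction, by luciferase-luciferin chemiluminescence, with 1 µM ATP and 1 µM poly-EY substrate, 2 h at ambient temperature, 10-point dose-response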
T3 construct: human c-Met kinase domain P948-S1343; host or cells: baculovirus expression

c-Kit kinase = c-Kit kinase (Homo sapiens, UniProt P10721); experiment: c-Kit AlphaScreen kinase assay; type: biochemical;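 also: c-Kit kinase phosphorylating biotinylated poly(Glu,Tyr), ATP near its KM, 1 h reaction at ambient temperature, AlphaScreen chemiluminescence with streptavidin donor and anti-phosphotyrosine acceptor beads, 10-point inhibitor titration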
Experimental: (§1) Kinase activity and compound inhibition are investigated using one or more of the three assay formats described below. The ATP concentrations for each assay are selected to be close to the Michaelis-Menten constant (KM) for each individual kinase. Dose-response experiments are performed at 10 different inhibitor concentrations in a 384-well plate format.
AlphaScreen™ (Perkin Elmer) technology is a proximity assay employing microparticles. Singlet oxygen derived from a donor bead following laser excitation results in chemiluminescence when in proximity (100 Å) to an acceptor bead due to biomolecular interactions.
c-Kit biochemical activity was assessed using AlphaScreen™ (Perkin Elmer) technology, described above. Test compounds, ATP, biotinylated poly(Glu, Tyr) and c-Kit kinase were combined in a volume of 20 μL in a 384-well white, medium binding microtiter plate (Greiner). Reaction mixtures were incubated for 1 hr at ambient temperature. […] After 16 hr incubation at ambient temperature plates were read using an AlphaQuest reader (Perkin Elmer).

[4] = molecular target: T4, Flt-3 (baculovirus expressed human Flt-3 kinase domain R571-S993) (Homo sapiens, UniProt P36888); experiment: biochemical; conditions: read-out: flt3 IC50;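 also: Luciferase-coupled chemiluminescent kinase assay, activity read as percent ATP left after a 3 h reaction at room temperature, ATP near KM, 10-point dose-response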
T4 construct: human Flt-3 kinase domain R571-S993; host or cells: baculovirus expression
T4 sequence (P36888 571-993): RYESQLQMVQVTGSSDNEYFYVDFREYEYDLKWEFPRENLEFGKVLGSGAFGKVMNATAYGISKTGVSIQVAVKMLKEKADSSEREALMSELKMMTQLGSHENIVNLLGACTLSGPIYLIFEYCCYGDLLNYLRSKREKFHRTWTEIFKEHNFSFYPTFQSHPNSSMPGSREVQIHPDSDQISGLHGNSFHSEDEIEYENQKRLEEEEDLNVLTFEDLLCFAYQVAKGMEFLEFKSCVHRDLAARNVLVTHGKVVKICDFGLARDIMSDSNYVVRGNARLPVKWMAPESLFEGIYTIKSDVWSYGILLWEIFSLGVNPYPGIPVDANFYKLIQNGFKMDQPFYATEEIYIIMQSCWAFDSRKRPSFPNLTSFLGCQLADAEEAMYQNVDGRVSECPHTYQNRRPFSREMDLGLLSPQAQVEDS
Experimental: as §1
Biochemical activity for flt-3 was assessed using a Luciferase-Coupled Chemiluminescent Kinase assay (LCCA) format. Kinase activity was measured as the percent ATP remaining following the kinase reaction. Remaining ATP was detected by luciferase-luciferin-coupled chemiluminescence. […] The mixture is incubated at ambient temperature for 3 hours after which 20 uL luciferase-luciferin mix is added and the chemiluminescent signal read using a Wallac Victor^2 reader.

[5] = Table 4, inhibition as IC50 class
[6] = Table 4, inhibition as IC50 class, read-out: flt4 IC50

T1 sequence (P35968 807-1356): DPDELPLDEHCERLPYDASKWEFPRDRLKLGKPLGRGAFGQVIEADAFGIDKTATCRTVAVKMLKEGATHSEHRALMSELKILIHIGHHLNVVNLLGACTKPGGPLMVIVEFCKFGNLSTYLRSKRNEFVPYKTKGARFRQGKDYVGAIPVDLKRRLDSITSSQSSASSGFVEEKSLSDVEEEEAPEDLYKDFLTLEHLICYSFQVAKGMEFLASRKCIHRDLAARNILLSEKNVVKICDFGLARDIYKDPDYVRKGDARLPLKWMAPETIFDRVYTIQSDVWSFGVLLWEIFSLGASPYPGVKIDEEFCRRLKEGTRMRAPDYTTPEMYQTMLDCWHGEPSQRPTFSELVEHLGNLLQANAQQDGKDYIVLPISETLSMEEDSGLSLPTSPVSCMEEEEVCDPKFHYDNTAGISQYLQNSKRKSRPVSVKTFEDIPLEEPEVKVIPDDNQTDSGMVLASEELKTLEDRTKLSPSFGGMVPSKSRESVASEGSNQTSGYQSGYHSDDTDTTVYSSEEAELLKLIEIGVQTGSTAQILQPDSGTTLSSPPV
Sequence of c-Kit kinase (P10721 26-976): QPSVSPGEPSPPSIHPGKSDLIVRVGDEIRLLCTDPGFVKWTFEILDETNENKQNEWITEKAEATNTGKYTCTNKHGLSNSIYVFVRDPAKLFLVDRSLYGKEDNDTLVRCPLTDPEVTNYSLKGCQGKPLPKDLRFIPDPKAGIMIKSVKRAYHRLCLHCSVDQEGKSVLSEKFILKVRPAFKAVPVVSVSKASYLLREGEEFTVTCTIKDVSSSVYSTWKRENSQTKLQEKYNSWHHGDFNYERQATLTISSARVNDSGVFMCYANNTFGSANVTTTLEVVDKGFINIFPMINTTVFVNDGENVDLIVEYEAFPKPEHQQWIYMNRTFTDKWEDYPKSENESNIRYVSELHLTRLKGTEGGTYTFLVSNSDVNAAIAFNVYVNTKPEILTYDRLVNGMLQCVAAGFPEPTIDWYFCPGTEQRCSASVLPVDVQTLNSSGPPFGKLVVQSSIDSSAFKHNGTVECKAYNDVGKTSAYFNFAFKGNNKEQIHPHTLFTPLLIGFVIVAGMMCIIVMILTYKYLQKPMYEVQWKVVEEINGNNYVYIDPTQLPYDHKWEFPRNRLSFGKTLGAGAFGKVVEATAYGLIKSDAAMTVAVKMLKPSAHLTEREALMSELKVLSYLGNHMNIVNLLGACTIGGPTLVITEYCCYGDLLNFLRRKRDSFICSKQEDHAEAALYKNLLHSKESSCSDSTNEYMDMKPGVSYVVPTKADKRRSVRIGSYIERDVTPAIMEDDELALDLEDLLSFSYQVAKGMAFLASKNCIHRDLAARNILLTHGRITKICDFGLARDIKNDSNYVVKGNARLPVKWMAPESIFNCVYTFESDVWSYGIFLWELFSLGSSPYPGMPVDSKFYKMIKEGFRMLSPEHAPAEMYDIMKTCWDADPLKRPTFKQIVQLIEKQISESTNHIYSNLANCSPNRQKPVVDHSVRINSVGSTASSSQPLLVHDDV
T3 sequence (P08581 1011-1343 limits assumed): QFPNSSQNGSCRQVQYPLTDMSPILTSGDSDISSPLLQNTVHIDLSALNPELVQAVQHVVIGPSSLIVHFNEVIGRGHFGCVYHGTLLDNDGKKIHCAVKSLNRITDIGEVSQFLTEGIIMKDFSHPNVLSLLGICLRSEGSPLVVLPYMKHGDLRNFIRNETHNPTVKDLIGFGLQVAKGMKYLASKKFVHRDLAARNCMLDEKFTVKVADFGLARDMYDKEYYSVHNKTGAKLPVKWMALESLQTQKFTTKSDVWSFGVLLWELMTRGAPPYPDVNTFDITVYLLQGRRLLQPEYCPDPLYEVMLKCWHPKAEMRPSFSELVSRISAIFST
T2 sequence (P35916 725-1298 isoform P35916-1): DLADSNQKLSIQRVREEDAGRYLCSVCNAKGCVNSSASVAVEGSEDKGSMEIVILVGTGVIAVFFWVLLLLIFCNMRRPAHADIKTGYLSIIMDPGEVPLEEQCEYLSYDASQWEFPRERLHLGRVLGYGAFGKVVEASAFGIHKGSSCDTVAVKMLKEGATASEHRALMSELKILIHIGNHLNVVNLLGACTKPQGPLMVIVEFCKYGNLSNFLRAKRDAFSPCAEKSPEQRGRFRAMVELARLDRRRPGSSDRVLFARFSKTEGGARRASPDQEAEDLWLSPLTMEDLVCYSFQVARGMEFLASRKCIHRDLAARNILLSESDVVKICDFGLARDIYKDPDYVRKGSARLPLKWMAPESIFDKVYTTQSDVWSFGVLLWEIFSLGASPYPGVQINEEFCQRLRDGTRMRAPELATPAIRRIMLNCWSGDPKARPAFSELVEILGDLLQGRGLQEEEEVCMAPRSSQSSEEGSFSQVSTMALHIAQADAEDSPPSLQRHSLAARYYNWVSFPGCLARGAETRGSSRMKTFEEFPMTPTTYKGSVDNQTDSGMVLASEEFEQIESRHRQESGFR

SMILES	IC50 [1] [nM]	IC50 ([2]; read-out: flt4 IC50) [nM]	IC50 (c-Kit kinase) [nM]	IC50 (c-Kit kinase; [5]) [nM]	IC50 [3, 5] [nM]	IC50 [1, 5] [nM]	IC50 [4, 5] [nM]	further results
COc1cc2c(Oc3ccc(NC(=S)NC(=O)Cc4ccccc4)cc3F)ncnc2cc1OCC1C[C@H]2CNC[C@H]2C1 (some centres unmarked) [Entry 1]	< 50	< 50						
COc1cc2c(Oc3ccc(NC(=S)NC(=O)Cc4ccccc4)cc3F)ncnc2cc1OCC1C[C@@H]2CN(C)C[C@@H]2C1 (some centres unmarked) [Entry 2]	< 50	< 50	< 50					IC50 [3]: < 50 nM
COc1cc2nccc(Oc3ccc(NC(=O)C(=O)N[C@@H]4CCc5ccccc5C4)cc3F)c2cc1OC [Entry 71]	> 5000	500 to 5000	50 to 500					IC50 [3]: 50 to 500 nM
COc1cc2nccc(Oc3ccc(NC(=O)C(=O)NCCC4CCCN4C)cc3F)c2cc1OC (centres unmarked) [Entry 72]			500 to 5000					IC50 [3]: 500 to 5000 nM; IC50 [4]: 500 to 5000 nM
COc1cc2nccc(Oc3ccc(NC(=O)C(=O)NCCOc4ccccc4)cc3F)c2cc1OC [Entry 73]	50 to 500	500 to 5000	50 to 500					IC50 [3]: 50 to 500 nM
COc1cc2nccc(Oc3ccc(N4CC(Cc5ccccc5)N(S(=O)(=O)c5ccc(C)cc5)C4=O)cc3)c2cc1OC (centres unmarked) [Example 112, 1-(4-{[6,7-bis(methyloxy)quinolin-4-yl]oxy}phenyl)-3-[(4-methylphenyl)sulfonyl]-4-(phenylmethyl)imidazolidin-2-one]	500 to 5000	500 to 5000	50 to 500					IC50 [3]: 50 to 500 nM; IC50 [4]: 500 to 5000 nM
COc1cc2c(Oc3ccc(NC(=O)C(=O)NC4CCc5ccccc54)cc3F)ccnc2cc1OCC1CCNCC1 (centres unmarked) [Example 177, N-{3-Fluoro-4-[6-methoxy-7-(piperidin-4-ylmethoxy)-quinolin-4-yloxy]-phenyl}-N′-indan-1-yl-oxalamide]				< 50				
COc1cc2c(Oc3ccc(NC(=O)C(=O)N[C@@H](C)c4ccccc4)cc3F)ccnc2cc1OCC1CCNCC1 [Example 184, N-{3-Fluoro-4-[6-methoxy-7-(piperidin-4-ylmethoxy)-quinolin-4-yloxy]-phenyl}-N′-(1S-phenyl-ethyl)-oxalamide]				< 50				
COc1cc2c(Oc3ccc(NC(=O)C(=O)NCc4ccc(F)c(C(F)(F)F)c4)cc3F)ccnc2cc1OCC1CCNCC1 [Example 216, N-[3-fluoro-4-({6-(methyloxy)-7-[(piperidin-4-ylmethyl)oxy]quinolin-4-yl}oxy)phenyl]-N′-{[4-fluoro-3-(trifluoromethyl)phenyl]methyl}ethanediamide]				50 to 500	< 50	< 50	< 50	IC50 [2, 6]: < 50 nM
COc1cc2c(Oc3ccc(NC(=O)C(=O)NCc4cc(Cl)cc(Cl)c4)cc3F)ccnc2cc1OCC1CCNCC1 [Example 217, N-[(3,5-dichlorophenyl)methyl]-N′-[3-fluoro-4-({6-(methyloxy)-7-[(piperidin-4-ylmethyl)oxy]quinolin-4-yl}oxy)phenyl]ethanediamide]				< 50	< 50	< 50	< 50	IC50 [2, 6]: < 50 nM
COc1cc2c(Oc3ccc(NC(=O)C(=O)NCCc4ccc(Cl)c(Cl)c4)cc3F)ccnc2cc1OCC1CCNCC1 [Example 223, N-[2-(3,4-dichlorophenyl)ethyl]-N′-[3-fluoro-4-({6-(methyloxy)-7-[(piperidin-4-ylmethyl)oxy]quinolin-4-yl}oxy)phenyl]ethanediamide]				< 50	< 50	< 50	< 50	
COc1cc2nccc(Oc3ccc(NC(=O)C(=O)NCC(c4ccccc4)N(C)C)cc3F)c2cc1OC (centres unmarked) [Example 235, N-(4-{[6,7-bis(methyloxy)quinolin-4-yl]oxy}-3-fluorophenyl)-N′-[2-(dimethylamino)-2-phenylethyl]ethanediamide]				50 to 500	50 to 500	50 to 500	< 50	
COc1ccc(CNC(=O)C(=O)Nc2ccc(Oc3ccnc4cc(OCC5CCN(C)CC5)c(OC)cc34)c(F)c2)cc1 [Example 247, N-{3-fluoro-4-[(6-(methyloxy)-7-{[(1-methylpiperidin-4-yl)methyl]oxy}quinolin-4-yl)oxy]phenyl}-N′-{[4-(methyloxy)phenyl]methyl}ethanediamide]				< 50	< 50	50 to 500	50 to 500	
COc1cc2c(Oc3ccc(NC(=O)C(=O)NCC(O)c4ccccc4)cc3F)ccnc2cc1OCC1CCNCC1 (centres unmarked) [Example 251, N-[3-fluoro-4-({6-(methyloxy)-7-[(piperidin-4-ylmethyl)oxy]quinolin-4-yl}oxy)phenyl]-N′-(2-hydroxy-2-phenylethyl)ethanediamide]				50 to 500	50 to 500	50 to 500	50 to 500	
CC[C@H](NC(=O)C(=O)Nc1ccc(Oc2ccnc3cc(OCC4CCNCC4)c(OC)cc23)c(F)c1)c1ccccc1 [Example 255, N-[3-fluoro-4-({6-(methyloxy)-7-[(piperidin-4-ylmethyl)oxy]quinolin-4-yl}oxy)phenyl]-N′-[(1S)-1-phenylpropyl]ethanediamide]				500 to 5000	< 50	50 to 500	50 to 500	
COc1cc2c(Oc3ccc(NC(=O)C(=O)NCc4cc(C(F)(F)F)cc(C(F)(F)F)c4)cc3F)ccnc2cc1OCC1CCNCC1 [Example 272, N-{[3,5-bis(trifluoromethyl)phenyl]methyl}-N′-[3-fluoro-4-({6-(methyloxy)-7-[(piperidin-4-ylmethyl)oxy]quinolin-4-yl}oxy)phenyl]ethanediamide]				500 to 5000	< 50	< 50	50 to 500	
COc1cc2c(Oc3ccc(NC(=O)C(=O)NCc4cnccn4)cc3F)ccnc2cc1OCC1CCNCC1 [Example 273, N-[3-fluoro-4-({6-(methyloxy)-7-[(piperidin-4-ylmethyl)oxy]quinolin-4-yl}oxy)phenyl]-N′-(pyrazin-2-ylmethyl)ethanediamide]				500 to 5000	50 to 500	500 to 5000	50 to 500	
COc1cc2nccc(Oc3ccc(NC(=O)C4(C(=O)Nc5ccc(F)cc5)CC4)cc3)c2cc1OC [Example 289, N-(4-{[6,7-bis(methyloxy)quinolin-4-yl]oxy}phenyl)-N′-(4-fluorophenyl)cyclopropane-1,1-dicarboxamide]								IC50 [2]: 5.58 nM
COc1cc2nccc(Oc3ncc(NC(=O)C4(C(=O)Nc5ccccc5)CC4)cc3Cl)c2cc1OC [Example 305, N-(6-{[6,7-bis(methyloxy)quinolin-4-yl]oxy}-5-chloropyridin-3-yl)-N′-phenylcyclopropane-1,1-dicarboxamide]	50 to 500		50 to 500					IC50 [3]: < 50 nM; IC50 [4]: < 50 nM
COc1cc2nccc(Oc3ccc(NC(=O)C4(C(=O)Nc5ccc(F)cc5)CC4)cc3F)c2cc1OC [Example 319, N-(4-{[6,7-bis(methyloxy)quinolin-4-yl]oxy}-3-fluorophenyl)-N′-(4-fluorophenyl)cyclopropane-1,1-dicarboxamide]		< 50	< 50					IC50 [4]: < 50 nM
COc1cc2c(Oc3ccc(NC(=O)C4(C(=O)Nc5ccc(F)cc5)CC4)cc3)ccnc2cc1OCCCN1CCOCC1 [Example 335, N-(4-fluorophenyl)-N′-[4-({6-(methyloxy)-7-[(3-morpholin-4-ylpropyl)oxy]quinolin-4-yl}oxy)phenyl]cyclopropane-1,1-dicarboxamide]	< 50	< 50	< 50					IC50 [4]: < 50 nM
